Series [1] relates to Cucumber (variety: SAGAMI HANPAKU). Nature of the series: Phytotoxicity studied in Test Example 2. In kind it is in vivo. Particulars: 500 ppm, foliage spray. The procedure:
Cucumber (variety: SAGAMI HANPAKU) was cultivated in a plastic pot of 4 cm diameter. A diluted solution of an active compound of the prescribed concentration, prepared in a similar manner as in the above-mentioned Test Example 1, was sprayed to seedlings reached to cotyledon in an amount of 6 ml per 3 pots. One day after the spraying, a suspension of spores, prepared by washing spores of Sphaerotheca fuliginea taken from previously infected cucumber into distilled water, was inoculated to the plant to be treated by spraying (once) and infected in a green house. Seven days after the inoculation, the contraction rate per pot was classified and evaluated to obtain the controlling value (%). Phytotoxicity was also studied at the same time. This test is an average of the results of 1 section 3 pots.

The test system of series [2] is Paddy rice (variety: KOSHIHIKARI). Particulars: in vivo.
In a further series the test system is Tomato (variety: REGINA). Particulars: in vivo.
For series [3], the system named is nursery stock (variety: OREGON SUPER DELICIOUS) leaves. Nature of the series: Phytotoxicity studied in Test Example 4. In kind it is in vivo. Particulars: 500 ppm, spray on detached leaves of nursery stock. As to the method:
A nursery stock (variety: OREGON SUPER DELICIOUS) was cultivated in a plastic pot of 30 cm diameter and its leaves, which had reached at perfect extension stage, were detached from the petiole, were cultivated under hydroponic condition by using a water-holding carrier. After that, a diluted solution of an active compound of the prescribed concentration, prepared in a similar manner as in the above-mentioned Test Example 1, was sprayed to the leaves in an amount of 6 ml per 3 leaves. One day after the spraying, a suspension of spores of artificially cultured Alternaria mali was inoculated to the leaves by spraying (once) and infected by transferring them into a moisturizing box and keeping at 20° C. Four days after the inoculation, the contraction rate per pot was classified and evaluated according to the following standard and the controlling value (%) was obtained. Phytotoxicity was also studied at the same time. This test is an average of the results of 1 section 3 leaves.

As usually defined, the melting point is the temperature of the solid-liquid transition. `COc1ncnc(N2CCCC2)c1Cc1cccc(F)c1`: the melting point was in the range of 74 to 76 °C.
The compound `CS(=O)(=O)c1nc(Cl)c(Cc2ccccc2)c(N2CCCC2)n1` registered a melting point of 136 to 138 °C.
`CC(c1ccccc1)c1c(Cl)ncnc1N1CCCC1` (racemic) [Compound 1-6]: the Phytotoxicity result in series [1] is “No phytotoxicity was observed”.
In the case of `Clc1ncnc(N2CCCC2)c1Cc1ccccc1` [Compound 1-5, 5-benzyl-4-chloro-6-pyrrolidin-1-yl-pyrimidine], the Phytotoxicity entry (in series [2]; in series [1]; with Tomato (variety: REGINA); in series [3]) was “No phytotoxicity was observed” throughout.
For `CC1CCCN1c1ncnc(Cl)c1Cc1ccccc1` (stereo not shown) [Compound 1-11], the Phytotoxicity result in series [2] and in series [1] was “No phytotoxicity was observed” each time.
Take `CC1CCCN1c1ncnc(Cl)c1Cc1cccc(F)c1` (stereo not shown) [Compound 1-14]: the Phytotoxicity result in series [2], in series [1] and in series [3] was “No phytotoxicity was observed” in each case.
Consider `CC1CCCN1c1ncnc(Cl)c1Cc1cccc(Cl)c1` (stereo not shown) [Compound 1-15], for which the Phytotoxicity result in series [2] and in series [1] was “No phytotoxicity was observed” in each case.
Consider `CC1CCCN1c1ncnc(Cl)c1Cc1ccc(F)c(F)c1` (stereo not shown) [Compound 1-16], for which the Phytotoxicity entry in series [2] and in series [1] was “No phytotoxicity was observed” in each case.
For `CC1CCCN1c1ncnc(Cl)c1Cc1cc(F)cc(F)c1` (stereo not shown) [Compound 1-17], the Phytotoxicity entry in series [2] and in series [1] was “No phytotoxicity was observed” in each case.
On to `OC[C@H]1CCCN1c1ncnc(Cl)c1Cc1ccccc1` [Compound 1-22], for which, in series [2], the Phytotoxicity entry is reported as “No phytotoxicity was observed”.
Turning to `Clc1ncnc(N2CC=CC2)c1Cc1ccccc1` [Compound 1-33], the Phytotoxicity result in series [2] and in series [3] was “No phytotoxicity was observed” in each case.
In the case of `CC1C=CC(C)N1c1ncnc(Cl)c1Cc1ccccc1` (stereo not shown) [Compound 1-36], the Phytotoxicity entry in series [2] and in series [3] was “No phytotoxicity was observed” in each case.
As to `Clc1ncnc(N2CCSC2)c1Cc1ccccc1` [Compound 1-37], in series [2], the Phytotoxicity result is listed as “No phytotoxicity was observed”.
Turning to `Clc1cccc(Cc2c(Cl)ncnc2N2CCSC2)c1` [Compound 1-41], the Phytotoxicity result in series [3] is “No phytotoxicity was observed”.
In the case of `Clc1ncnc(N2CCC=N2)c1Cc1ccccc1` [Compound 1-42], the Phytotoxicity entry in series [3] is “No phytotoxicity was observed”.
With `Fc1ccccc1Cc1c(Cl)ncnc1N1CCCC1` [Compound 1-45], the Phytotoxicity result in series [2] is listed as “No phytotoxicity was observed”.
For `Clc1ccccc1Cc1c(Cl)ncnc1N1CCCC1` [Compound 1-46], the Phytotoxicity result in series [1] and in series [3] was “No phytotoxicity was observed” throughout.
With `Fc1cccc(Cc2c(Cl)ncnc2N2CCCC2)c1` [Compound 1-56, 4-Chloro-5-(3-fluorobenzyl)-6-pyrrolidin-1-yl-pyrimidine], the Phytotoxicity entry in series [2], in series [1] and in series [3] was “No phytotoxicity was observed” throughout.
Turning to `Clc1cccc(Cc2c(Cl)ncnc2N2CCCC2)c1` [Compound 1-57], the Phytotoxicity entry in series [2] and in series [1] was “No phytotoxicity was observed” in each case.
`Fc1ccc(Cc2c(Cl)ncnc2N2CCCC2)cc1` [Compound 1-68]: the Phytotoxicity entry in series [2] and in series [1] was “No phytotoxicity was observed” in each case.
On to `Fc1ccc(Cc2c(Cl)ncnc2N2CCCC2)cc1F` [Compound 1-86], for which the Phytotoxicity entry in series [2] and in series [1] was “No phytotoxicity was observed” in each case.
With `Fc1cc(F)cc(Cc2c(Cl)ncnc2N2CCCC2)c1` [Compound 1-87], the Phytotoxicity entry in series [2] and in series [1] was “No phytotoxicity was observed” in each case.
For the compound `Fc1cccc(Cc2cncnc2N2CCCC2)c1` [Compound 1-102, 5-(3-fluorobenzyl)-4-pyrrolidin-1-yl-pyrimidine], the melting point lay in the range of 51 to 54 °C. Moreover, the Phytotoxicity result in series [2] was “No phytotoxicity was observed”. In addition, the Phytotoxicity result in series [3] is on record as “No phytotoxicity was observed”.
As to `CC(C)(C)c1nc(Cl)c(Cc2ccccc2)c(N2CCCC2)n1` [Compound 1-121], in series [3], the Phytotoxicity entry is reported as “No phytotoxicity was observed”.
`CSc1nc(Cl)c(Cc2ccccc2)c(N2CCCC2)n1` [Compound 1-165, 5-benzyl-4-chloro-2-methylthio-6-pyrrolidin-1-yl-pyrimidine]: the melting point lay within 97 to 99 °C. For the same compound, in the series with Tomato (variety: REGINA), the Phytotoxicity entry was “No phytotoxicity was observed”.
For the compound `Clc1nc(-c2ccccn2)nc(N2CCCC2)c1Cc1ccccc1` [Compound 1-238], the Phytotoxicity result (in series [2]; with Tomato (variety: REGINA)) was “No phytotoxicity was observed” in each case.
`Clc1nc(-c2ccncc2)nc(N2CCCC2)c1Cc1ccccc1` [Compound 1-304]: the Phytotoxicity entry in series [3] is on record as “No phytotoxicity was observed”.
As for `Clc1nc(-c2cnccn2)nc(N2CCCC2)c1Cc1ccccc1` [Compound 1-311], in series [3], the Phytotoxicity entry was “No phytotoxicity was observed”.
In the case of `Clc1nc(-n2cncn2)nc(N2CCCC2)c1Cc1ccccc1` [Compound 1-435], in series [3], the Phytotoxicity entry is recorded as “No phytotoxicity was observed”.
Consider `Cc1cc(C)n(-c2nc(C)nc(Cl)c2Cc2ccccc2)n1` [Compound 1-523], for which the Phytotoxicity entry in series [3] is “No phytotoxicity was observed”.

The values above are taken from US20070167421A1, “Pyrimidine derivatives and use thereof as agricultural and horticultural fungicides” (priority 2004, published 2007).
